{"source": "patent US20020052409A1", "about": "“Compounds and methods for treating mitochondria-associated diseases” (priority 1998, published 2002)", "key": {"[1]": {"tested_on": "1685 cells", "assay": "Thapsigargin induced apoptosis (cell death, propidium iodide)", "assay_type": "cell-based, human", "conditions": "for Δ Cell Viability: [% Non-Viable Cells (with Thapsigargin, without Cmpd)] − [% Non-Viable Cells (with Thapsigargin, with Cmpd)], agent 100 μM; for % Non-Viable Cells with Thapsigargin and with Cmpd. / cytotoxicity at 100 µM: thapsigargin 1 μM plus agent 100 μM, 24 hours; for cytotoxicity at 100 µM: Homo sapiens, read-out: % Non-Viable Cells with Thapsigargin and with Cmpd.", "procedure": "In another aspect of the apoptosis assays, the ratio of living to dead cells, or the proportion of dead cells, in a population of cells exposed to an apoptogen is determined as a measure of the ultimate consequence of apoptosis. Living cells can be distinguished from dead cells using any of a number of techniques known to those skilled in the art.\nIn order to determine the effect of compounds of this invention on the final endpoint of apoptosis (cell death), the following assays were carried out. […] Cells were plated (3×10^4 cells per well) on 96-well plates 48 hours prior to thapsigargin treatment. Thapsigargin (Calbiochem, La Jolla, Calif.) alone (final concentration, 1 μM), thapsigargin (1 μM) plus agent final concentration, 100 μM), agent alone (100 μM) in growth media, or growth media devoid of both thapsigargin and agent, were added to cells in four separate wells.\nTwenty-four hours after thapsigargin +/− agent treatment, propidium iodide (Sigma Chemical Co., St. Louis, Mo.) was added to each well at a final concentration of 10 μg/ml per well. […] The resulting fluorescence values correspond to cells in the monolayer of a well that are non-viable.\n(§1) Next, the media was aspirated, and the monolayer was fixed (killed) by adding 100 μl of 100% ethanol to each well followed by incubation at ambient temperature for 10 minutes. The fluorescense in each well was then read again. The fluorescence values resulting from the second reading correspond to the total number of cells (whether viable or non-viable at the time of the initial fluorescence reading) present in the monolayer of a well."}, "[2]": {"tested_on": "1685 cells", "assay": "Cytotoxic effects of compounds, no thapsigargin (propidium iodide)", "assay_type": "cell-based, human", "procedure": "In order to determine the effect of compounds of this invention on the final endpoint of apoptosis (cell death), the following assays were carried out. The cells used were 1685 cells, “1685” being the designation of a cybrid cell line derived from SH-SY5Y and containing mitochondria from a patient having Alzheimer's disease (see U.S. Pat. No. 5,888,498, issued Mar. 30, 1999, hereby incorporated by reference). Cells were plated (3×10^4 cells per well) on 96-well plates 48 hours prior to thapsigargin treatment. Thapsigargin (Calbiochem, La Jolla, Calif.) alone (final concentration, 1 μM), thapsigargin (1 μM) plus agent final concentration, 100 μM), agent alone (100 μM) in growth media, or growth media devoid of both thapsigargin and agent, were added to cells in four separate wells.\nTwenty-four hours after thapsigargin +/− agent treatment, propidium iodide (Sigma Chemical Co., St. Louis, Mo.) was added to each well at a final concentration of 10 μg/ml per well. The cells were incubated at ambient temperature for 10 minutes, after which the fluorescence (excitation max=536 nm, 544 nm used for excitation; emission max=617, readings at 612 nm) was determined for each individual well in a fmax™ fluorescence microplate reader (Molecular Devices, Sunnyvale, Calif.). The resulting fluorescence values correspond to cells in the monolayer of a well that are non-viable.\nas §1\nThe results, presented in Table 4 below, are expressed as the percentage of non-viable cells as a proportion of the […] cells (fixed controls).\nThe ΔCell Viability values resulting from treating cells with agents in this class in the absence of thapsigargin (Table 4, infra) closely parallel the ΔCell Viability values that result when cells are treated with the respective agent and thapsigargin ([…])."}, "[3]": {"tested_on": "human cytoplasmic hybrid (“cybrid”) cells", "assay": "Assay for mitochondrial permeability transition using DASPMI (ionomycin-induced fluorescence decay)", "assay_type": "cell-based", "conditions": "DASPMI-loaded cybrid cells, ionomycin induced membrane potential collapse", "from_the_text": "B. Assay for Mitochondrial Permeability Transition (MPT) Using 2-,4-Dimethvlaminostyryl-N-Methvlpyridinium (DASPMI).\nAccording to this assay, one may determine the ability of a mitochondria protecting agent of the invention to inhibit the loss of mitochondrial membrane potential that accompanies mitochondrial dysfunction. […] This loss of membrane potential or mitochondrial permeability transition (MPT) can be quantitatively measured using the mitochondria-selective fluorescent probe 2-,4-dimethylaminostyryl-N-methylpyridinium (DASPMI).\nUpon introduction into cell cultures, DASPMI accumulates in mitochondria in a manner that is dependent on, and proportional to, mitochondrial membrane potential. If mitochondrial function is disrupted in such a manner as to compromise membrane potential, the fluorescent indicator compound leaks out of the membrane bounded organelle with a concomitant loss of detectable fluorescence. Fluorimetric measurement of the rate of decay of mitochondria associated DASPMI fluorescence provides a quantitative measure of loss of membrane potential, or MPT.\nCulture supernatants are then removed and various concentrations of candidate mitochondria protecting agents diluted into HBSS from DMF stocks, or vehicle controls, are added at various concentrations. Mitochondria protecting agents are introduced to cells either before, or at the same time as, introduction of the cells to ionomycin (described below).\nFluorescence of each microculture in the 96-well plate is quantified immediately using a Molecular Devices fmax™ fluorimetric plate reader (Molecular Devices Corp., Sunnyvale, Calif.; excitation wavelength=485 nm; emission wavelength=590 nm) and to fluorescence is recorded. Thereafter, induction of mitochondrial membrane potential collapse is initiated by the addition of ionomycin (Calbiochem, San Diego, Calif.). Ionomycin stock solutions of various concentrations from 0.1-40 μM are prepared in warm Hank's balanced salt solution (HBSS) and diluted for addition to cells to achieve a final concentration of 0.05-20 μM, with final concentrations of 4-10 μM being preferred. Fluorescence decay of DASPMI-loaded, ionomycin induced cells is monitored as a function of time from 0-500 seconds following addition of ionomycin. The maximum negative slope (V-max) is calculated from a subset of the data using analysis software provided by the fluorimetric plate reader manufacturer. In addition, the initial and final signal intensities are determined and the effects of candidate mitochondria protecting agents on the rate of signal decay are quantified."}, "[4]": {"tested_on": "cybrid cells (MixCon, 1685 cells)", "assay": "Ionomycin induced apoptosis in cybrid cells: cytochrome c release (ProteinChip/SELDI)", "assay_type": "cell-based, human", "conditions": "100 μM at the same time ionomycin (10 μM) was introduced; FIGURE", "description": "In another aspect of the apoptosis assays, quantification of the mitochondrial protein cytochrome c that has leaked out of mitochondria in apoptotic cells may provide an apoptosis indicator that can be readily determined (Liu et al., Cell 86:147-157, 1996). Such quantification of cytochrome c may be performed spectrophotometrically, immunochemically or by other well established methods for detecting the presence of a specific protein. Release of cytochrome c from mitochondria in cells challenged with apoptotic stimuli (e.g., ionomycin, a well known calcium ionophore) can be followed by a variety of immunological methods. Matrix-assisted laser desorption ionization time of flight mass (MALDI-TOF) spectrometry coupled with affinity capture is particularly suitable for such analysis since apo-cytochrome c and holo cytochrome c can be distinguished on the basis of their unique molecular weights. […] The molecular weight of the protein is determined by its time of flight to the detector of the SELDI mass spectrometer. […]\nCytochrome c antibody was covalently bound to solid support chips containing a pre-activated surface (ProteinChip, Ciphergen, Palo Alto, Calif.). […] After removal of the Tris-saline buffer, the chip was rinsed with 1× PBS and was ready for capture of the antigen. […]"}, "[5]": {"tested_on": "SH-SY5Y neuroblastoma cells", "assay": "Ionomycin-induced apoptosis in neuroblastoma cells (membrane blebbing, light microscopy)", "assay_type": "cell-based, human", "conditions": "2 mM, simultaneously with 10 μM ionomycin; 6h incubation; ionomycin alone approximately 80%, untreated <5%", "procedure": "SH-SY5Y neuroblastoma cells (1×10^5 cells) were rinsed with one volume 1X PBS, and then treated with 10 μM ionomycin (Calbiochem, San Diego, Cass.) in DMEM supplemented with 10% fetal calf serum (FCS) (Gibco, Life Technologies, Grand Island, N.Y.) for 10 minutes, followed by two washes with DMEM (10% FCS). After 6h incubation at 37° C. in DMEM (10% FCS), cells were visualized by light microscopy (20X magnification). […] When cells were simultaneously treated with ionomycin and 2 mM creatine, the proportion of cells undergoing apoptosis as evidenced by membrane blebbing was reduced to approximately 10%."}}}
{"smiles": "N=C(N)Nc1ccc(O)c(C(=O)O)c1", "note": "[(23)]", "values": [{"measurement": "Δ Cell Viability", "setting": "[1]", "result": 0.6, "unit": "%"}, {"measurement": "% Non-Viable Cells with Thapsigargin and with Cmpd.", "setting": "[1]", "result": 49.8, "unit": "%"}]}
{"smiles": "N=C(N)Nc1ccccc1CO", "note": "[(19)]", "values": [{"measurement": "% Non-Viable Cells with Thapsigargin and with Cmpd.", "setting": "[1]", "result": 44.3, "unit": "%"}]}
{"smiles": "COc1cc(C(=O)O)ccc1NC(=N)N", "note": "[(12)]", "values": [{"measurement": "Δ Cell Viability", "setting": "[1]", "result": 1.8, "unit": "%"}, {"measurement": "% Non-Viable Cells with Thapsigargin and with Cmpd.", "setting": "[1]", "result": 37.5, "unit": "%"}]}
{"smiles": "N=C(N)Nc1cc(F)cc(F)c1", "note": "[(15)]", "values": [{"measurement": "% Non-Viable Cells with Thapsigargin and with Cmpd.", "setting": "[1]", "result": 42.2, "unit": "%"}]}
{"smiles": "CCCCCCCCc1ccc(NC(=N)N)cc1", "note": "[Compound (31)]", "values": [{"measurement": "% Non-Viable Cells with Thapsigargin and with Cmpd.", "setting": "[1]", "result": 100.0, "unit": "%"}, {"measurement": "Δ Cell Viability", "setting": "[2]", "result": "−83.5", "unit": "%"}]}
{"smiles": "N=C(N)Nc1ccc(C(=O)O)cc1", "note": "[4-Guanidinobenzoic Acid]", "values": [{"measurement": "IC50", "setting": "[3]", "result": 1000, "unit": "µM"}]}
{"smiles": "N=C(N)Nc1ccc(F)cc1", "note": "[(17)]", "values": [{"measurement": "% Non-Viable Cells with Thapsigargin and with Cmpd.", "setting": "[1]", "result": 56.9, "unit": "%"}, {"measurement": "Δ Cell Viability", "setting": "[2]", "result": "−23.6", "unit": "%"}]}
{"smiles": "CCCCCCCCc1ccc(O)c(NC(=N)N)c1", "note": "[Compound (6)]", "values": [{"measurement": "cytotoxicity at 100 µM", "setting": "[1]", "result": 122, "unit": "%"}, {"measurement": "Δ Cell Viability", "setting": "[2]; no thapsigargin, [% Non-Viable Cells (without Cmpd)] − [% Non-Viable Cells (with Cmpd)]", "result": "−109.0", "unit": "%"}, {"measurement": "% Non-Viable Cells with Cmpd.", "setting": "[2]; no thapsigargin, agent alone 100 μM, 24 hours", "result": 125.2, "unit": "%"}]}
{"smiles": "N=C(N)NC(=N)Nc1ccc(C(=O)O)cc1", "note": "[(34)]", "values": [{"measurement": "Δ Cell Viability", "setting": "[1]", "result": 2.9, "unit": "%"}, {"measurement": "% Non-Viable Cells with Thapsigargin and with Cmpd.", "setting": "[1]", "result": 42.4, "unit": "%"}]}
{"smiles": "CCCCCCOc1ccc(NC(=N)N)cc1", "note": "[(16)]", "values": [{"measurement": "% Non-Viable Cells with Thapsigargin and with Cmpd.", "setting": "[1]", "result": 121.2, "unit": "%"}, {"measurement": "Δ Cell Viability", "setting": "[2]", "result": "−106.7", "unit": "%"}]}
{"smiles": "NC1=NCCN1CC(=O)O", "note": "[Cyclocreatine]", "values": [{"measurement": "IC50", "setting": "[3]", "result": 3000, "unit": "µM"}]}
{"smiles": "CN(Cc1cc(C(C)(C)C)c(O)c(C(C)(C)C)c1)NC(=N)N", "note": "[Compound (4)]", "values": [{"measurement": "cytotoxicity at 100 µM", "setting": "[1]", "result": 43.8, "unit": "%"}, {"measurement": "Δ Cell Viability", "setting": "[1]", "result": 2.1, "unit": "%"}, {"measurement": "IC50", "setting": "[3]", "result": 10, "unit": "µM"}]}
{"smiles": "N=C(N)Nc1ccc(N2CCOCC2)cc1", "note": "[(27)]", "values": [{"measurement": "Δ Cell Viability", "setting": "[1]", "result": 7.9, "unit": "%"}, {"measurement": "% Non-Viable Cells with Thapsigargin and with Cmpd.", "setting": "[1]", "result": 42.5, "unit": "%"}]}
{"smiles": "N=C(N)NCCc1ccc(O)c(O)c1", "note": "[(28)]", "values": [{"measurement": "% Non-Viable Cells with Thapsigargin and with Cmpd.", "setting": "[1]", "result": 52.3, "unit": "%"}]}
{"smiles": "N=C(N)NC(=N)Nc1ccccc1", "note": "[(1 1)]", "values": [{"measurement": "cytochrome c release", "setting": "[4]", "result": "attenuation of cytochrome release"}]}
{"smiles": "N=C(N)Nc1cc(C(F)(F)F)cc(C(F)(F)F)c1", "note": "[(14)]", "values": [{"measurement": "% Non-Viable Cells with Thapsigargin and with Cmpd.", "setting": "[1]", "result": 47.9, "unit": "%"}]}
{"smiles": "COc1cc(NC(=N)N)c(Cl)cc1C(=O)O", "note": "[(13)]", "values": [{"measurement": "% Non-Viable Cells with Thapsigargin and with Cmpd.", "setting": "[1]", "result": 52.8, "unit": "%"}, {"measurement": "Δ Cell Viability", "setting": "[2]", "result": "−22.2", "unit": "%"}]}
{"smiles": "CN(CC(=O)O)C(=N)N", "note": "[Creatine]", "values": [{"measurement": "IC50", "setting": "[3]", "result": 2000, "unit": "µM"}, {"measurement": "proportion of cells undergoing apoptosis as evidenced by membrane blebbing", "setting": "[5]", "result": "approximately 10%"}]}
{"smiles": "CC(C)(C)c1cc(CNNC(=N)N)cc(C(C)(C)C)c1O", "note": "[Compound (1)]", "values": [{"measurement": "ΔCell Viability", "setting": "[1]; (+thapsigargin, −compound)—(+thapsigargin, +compound), approximate values", "result": "about 3.5"}, {"measurement": "cytotoxicity at 100 µM", "setting": "[1]", "result": 38.3, "unit": "%"}, {"measurement": "Δ Cell Viability", "setting": "[1]", "result": 3.2, "unit": "%"}]}
{"smiles": "COc1cc(NC(=N)N)cc(OC)c1OC", "note": "[(3)]", "values": [{"measurement": "% Non-Viable Cells with Thapsigargin and with Cmpd.", "setting": "[1]", "result": 46.7, "unit": "%"}]}
